A word on the ED50: it is the dose at which the effect has come halfway, by size or by number of responders.

The structures appear in SMILES notation.

The values that follow come from patent EP0006452A1, “Hypoglycemic phenylpropynylamino benzoic acids, their salts, pharmaceutical compositions containing said compounds and their application” (THE DOW CHEMICAL COMPANY, priority 1978, dated 1980).

For the assay, the system named is alanine-induced hyperglycemic mice. The assay can be described thus: Hypoglycemic activity in alanine-induced hyperglycemic mice (serum glucose lowering). In kind it is in vivo. The note with it: for percent lowering of serum glucose as compared to controls: fasted male Swiss-Webster mice, 10 m moles/kg L-alanine i.p. 15 min later, serum glucose 60 min after compound, 100% = lowering to fasting glucose level; for ED50: Mus musculus, ip, 1 h, intraperitoneal, lowering of serum glucose in alanine-induced hyperglycemic fasted male Swiss-Webster mice, read-out: ED50 (effective dose). The method, then:
Alanine is the most glucogenic of the amino acids and also stimulates gluconeogensis in normal animals. Animals suffering from diabetes show an exaggerated hyperglycemic response to a protein or amino acid meal, therefore the hyperglycemic state induced by alanine closely parallels the response of a diabetic mammal.
Fifteen minutes later the same mice were injected intraperitoneally with 10 m moles/kg body weight of L-alanine. […] The control consisted of both fasted mice and mice injected with alanine only. The results are expressed as percent lowering of serum glucose from the alanine induced hyperglycemic level to the fasted control glucose level, i.e. lowering to the fasting glucose level is 100% lowering.

[1] abbreviates: Dosage Level 7.5 mg/kg intraperitoneal.
Where [2] appears, read: Dosage Level 15 mg/kg intraperitoneal.
[3] abbreviates: Dosage Level 30 mg/kg intraperitoneal.
The mark [4] stands for this setting: Dosage Level 60 mg/kg intraperitoneal.

Consider `O=C(O)c1ccc(NCC#Cc2ccc(F)cc2)cc1` [Example 3, 4((3-(4-fluoro)phenyl-2-propynyl)amino)benzoic acid], for which the ED50 is 18 mg/kg. Moreover, under setting [1], the “percent lowering of serum glucose as compared to controls” value (shortened to “percent lowering of serum glucose”) came out at 2%. Also, the “percent lowering of serum glucose” value under setting [2] turned out to be 66%. Besides, under setting [3], the “percent lowering of serum glucose” value turned out to be 91%. The “percent lowering of serum glucose” value under setting [4] stood at 172%.
For `Cc1ccc(C#CCNc2ccc(C(=O)O)cc2)cc1` [Example 5, 4-((3-(4-Methyl)phenyl-2-propynyl)amino)benzoic acid] the same measures were 21 mg/kg, 9%, 15%, 118% and 76%.
For `O=C([O-])c1ccc(NCC#Cc2ccccc2)cc1.[Na+]` [Example 2, 4-((3-phenyl-2-propynyl)-amino)benzoic acid-sodium salt], the “percent lowering of serum glucose” value reads like this: under setting [1], 44%; under setting [2], 69%; under setting [3], 114%; under setting [4], 139%. Where the note is “summary of Table I, lowering the amount of glucose in the serum of the test animals”, the “hypoglycemic activity (in words)” value is “most active”.
As for `O=C(O)c1ccc(NCC#Cc2ccccc2)cc1` [Example 1, 4-((3-phenyl-2-propynyl)-amino)benzoic acid], the ED50 is 8 mg/kg. Further, the “percent lowering of serum glucose” value under setting [1] turned out to be 36%. Also, the “percent lowering of serum glucose” value under setting [2] came to 79%. Further, the “percent lowering of serum glucose” value under setting [3] was 98%. Further, the “percent lowering of serum glucose” value under setting [4] was 132%.
For `O=C(O)c1ccc(NCC#Cc2ccc(Cl)cc2)cc1` [Example 4, 4-((3-(4-Chloro)phenyl-2-propynyl)amino)-ben zoic acid], the “percent lowering of serum glucose” value under setting [4] came out at 39%.
